According to patent publication US20050261319A1, “Novel 2-amino-4-quinazolinones and 2-amino-4-oxoquinazolones as LXR nuclear receptor binding compounds with partial agonistic properties” (priority 2002, published 2005):

Columns and labels:
[1] = molecular target: T1, human LXRalpha LBD (Homo sapiens, UniProt Q13133, A196R); assay: In vitro screening for LXR binding to coactivator Tif2 (LANCE TR-FRET); format: biochemical
T1 construct: from amino acids 155 of hLXRalpha to 447; made in house; host or cells: SF9 insect cells (baculovirus) for LXRalpha LBD; E. coli BL21 for Tif2 fragment
T1 sequence (Q13133 155-447 A196R): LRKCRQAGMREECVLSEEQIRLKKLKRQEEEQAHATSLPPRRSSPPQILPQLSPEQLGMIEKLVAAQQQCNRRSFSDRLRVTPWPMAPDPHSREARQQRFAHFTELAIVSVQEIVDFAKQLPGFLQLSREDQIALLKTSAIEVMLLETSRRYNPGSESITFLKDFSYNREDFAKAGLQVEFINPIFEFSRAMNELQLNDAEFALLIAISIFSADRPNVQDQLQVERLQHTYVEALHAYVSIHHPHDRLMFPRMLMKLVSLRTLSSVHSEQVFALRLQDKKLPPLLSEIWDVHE
T1 sequence (Q15596 548-878 partner limits assumed): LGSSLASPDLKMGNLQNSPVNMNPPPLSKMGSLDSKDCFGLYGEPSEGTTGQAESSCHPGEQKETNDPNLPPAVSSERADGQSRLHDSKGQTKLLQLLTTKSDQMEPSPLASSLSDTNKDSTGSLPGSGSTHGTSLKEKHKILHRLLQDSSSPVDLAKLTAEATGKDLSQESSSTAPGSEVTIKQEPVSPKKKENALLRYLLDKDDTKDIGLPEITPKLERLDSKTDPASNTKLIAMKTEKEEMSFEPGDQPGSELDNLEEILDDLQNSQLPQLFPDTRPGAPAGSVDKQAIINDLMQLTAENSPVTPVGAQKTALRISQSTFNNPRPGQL
From the text: For screening purposes a GST and 6× His fusion of the LBD (from amino acids 155 of hLXRalpha to 447) of human LXRalpha was constructed by first cloning a Gateway cassette (Invitrogen) in frame into the Sma I site of the pAGGHLT Polylinker (Pharmingen). Then a PCR fragment specifically amplified from human liver cDNA was cloned into the resulting pACGHLT-GW following the manufacturers instructions for Gateway cloning (Invitrogen) to yield pACGHLT-GW-hLXRalphaLBD.
100% sequence integrity of all recombinant products was verified by sequencing. Recombinant Baculovirus was constructed from pACGHLT-GW-hLXRalphaLBD using the Pharmingen Baculovirus Expression vector system according to instructions of the manufacturer. Monolayer cultures of SF9 cells were infected by the virus as recommended by Pharmingen or 200 ml cultures of 1×10^6 cells/ml grown in 2 liter Erlenmeyer flasks on an orbital shaker at 30 rpm were infected by 10 ml of same virus stock. In both cases cells were harvested 3 days after infection. All cell growth was performed in Gibco SF900 II with Glutamine (Invitrogen) medium without serum supplementation at 28° C. Since SF9 cells contain significant amounts of endogenous 30 GST, purification was performed via His and not via GST affinity chromatography.
To this end instructions of Pharmingen for purification of recombinant His tagged proteins from SF9 cells were followed with the following modifications: All detergents were omitted from the buffers and cells were lysed on ice by 5 subsequent sonication pulses using a sonicator needle at maximum power.
All eluates were dialyzed against 20 mM Tris/HCl pH 6.8, 300 mM KCl; 5 mM MgCl2;1 mM DTT; 0.2 mM PMSF; 10% Glycerol. A typical dialyzed eluate fraction contained the fusion protein at a purity of more than 80%. Total protein concentration was 0.1-0.3 mg/ml.
For E. coli expression of a NR coactivator, pDest17-hTif2BD expressing an NR interaction domain from amino acids 548-878 of human Tif2 (Acc. No: XM011633 Ref Seq) tagged by 6 N-terminal His residues was constructed. Therefore, a PCR fragment specifically amplified from human liver cDNA was subcloned into pDest 17 (Invitrogen) following the manufacturers instructions for Gateway cloning (Invitrogen). Primers used for Amplification were: […]
For E. coli expression plasmid DNA was transformed into chemically competent E. coli BL21 (Invitrogen, USA) and cells were grown to an OD600 of 0.4-0.7 before expression was induced by addition of 0.5 mM IPTG according instructions of the manufacturer (Invitrogen). After induction for 8 hours at 30° C. cells were harvested by centrifugation for 10 minutes at 5000×g. Fusion proteins were affinity purified using Ni—NTA Agarose (QIAGEN) according to the instructions of the manufacturer.
Recombinant Tif2 construct was dialyzed against 20 mM Tris/HCL pH 7.9; 60 mM KCl; 5 mM MgCl2; 1 mM DTT, 0.2 mM PMSF; 10% glycerol. A typical dialyzed eluate fraction contained the fusion protein at a purity of more than 80%. Total protein concentration was 0.1-0.3 mg/ml.
The TIF2 fragment was subsequently biotinylated by addition of 5-40 ul/ml Tif2 fraction of a Biotinamidocaproate N-Hydroxysuccinimide-ester (Sigma) solution (20 mg/ml in DMSO). Overhead rotating samples were incubated for 2 hours at room temperature. Unincorporated label was then separated using G25 Gel filtration chromatography (Pharmacia Biotech, Sweden). Protein containing fractions from the column were pooled and tested for activity in the assay as described below.
For screening of compound libraries as provided for by the methods shown below in the examples for substances which influence the LXR/Tif 2 interaction, the PerkinElmer LANCE technology is applied. This method relies on the binding dependent energy transfer from a donor to an acceptor fluorophore attached to the binding partners of interest. […]

[2] = molecular target: T2, GAL4-LXRb-LBD (Homo sapiens, UniProt P55055); assay: Mammalian one hybrid (M1H) luciferase assay in HEK293 cells, LXR beta LBD; format: cell-based; details: for LXR beta LBD construct mediated luciferase activity compared with LXR alpha construct: M1H assay
T2 construct: expressed in transfected cells; host or cells: HEK293
T2 sequence (P55055 222-460 limits assumed): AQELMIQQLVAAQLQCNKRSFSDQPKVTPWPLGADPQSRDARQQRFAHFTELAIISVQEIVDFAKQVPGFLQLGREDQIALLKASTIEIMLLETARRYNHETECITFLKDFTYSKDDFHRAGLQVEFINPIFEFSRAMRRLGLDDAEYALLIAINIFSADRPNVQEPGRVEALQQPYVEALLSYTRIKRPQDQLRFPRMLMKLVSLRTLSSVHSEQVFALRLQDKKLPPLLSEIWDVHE
Procedure: For TR1040001892, TR1040011382, TR1040002211, and TR1040002212, HEK293 cells are grown in 96 well plates and co-transfected with pFR-luc (Stratagene) and pCMV-BD-LXRa-LBD or pCMV-BD-LXRb-LBD (each 100 ng of plasmid DNA per well). Transfection is carried using Lipfectamine 2000 (Gibco-BRL) according to the manufacturers protocol. The ligand binding domains (LBD) of LXRa and LXRb are cloned into the pCMV-BD-GW (the Gateway Reading Frame Cassette B is cloned as an EcoRV fragment into Sma1 site of pCMV-BD) applying the manufacturer protocols for the Gateway system (Invitrogen). […] The type of assay used here is a mammalian one hybrid (M1 H) assay that is known to those skilled in the art.

Row | SMILES | active as agonist / partial agonist of the LXR human nuclear receptor [1] | luciferase reporter gene expression mediated through GAL4-LXRb-LBD [2] | LXR beta LBD construct mediated luciferase activity compared with LXR alpha construct [2] | EC50 ([1]; FRET assay, read-out: EC50 at LXR (half-maximal effective concentration))
1 | CC(C)n1c(N2C3CC(C)(C)CC2(C)C3)nc2ccc(I)cc2c1=O (stereo not shown) [formula (10)] | active as partial agonist | activate luciferase reporter gene expression in a dose dependent manner | much stronger than with LXR alpha construct | –
2 | C=CCn1c(N2[C@@H]3CC(C)(C)C[C@@]2(C)C3)nc2cccc(F)c2c1=O [formula (12)] | active as partial agonist | activate luciferase reporter gene expression in a dose dependent manner | – | –
3 | CCCn1c(N2[C@@H]3CC(C)(C)C[C@@]2(C)C3)nc2cccc(F)c2c1=O [formula (11)] | active as partial agonist | activate luciferase reporter gene expression in a dose dependent manner | – | –
4 | C=CCn1c(N2C3CC(C)(C)CC2(C)C3)nc2ccc(I)cc2c1=O (stereo not shown) [formula (9)] | – | activate luciferase reporter gene expression in a dose dependent manner | much stronger than with LXR alpha construct | 2 µM
